≈ marks a conversion by molar mass, not a printed value.
Key:
Assay in all cases: minimal inhibitory concentration, two-fold agar dilution
Format in all cases: cell-based
[1] = system: Proteus mirabilis ATCC 25933; conditions: ATCC25933, Muller-Hinton agar, 37°C, 20 hours, read-out: MIC values against the standard strains
In short: (§1)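 Compounds were serially diluted two-fold into Mueller-Hinton agar, and each plate was spot-inoculated with the test strain at 10⁷ CFU per ml. Plates were incubated at 37°C for 20 hours before MIC values were read.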

[2] = system: Staphylococcus aureus ATCC 10537; conditions: ATCC10537, Muller-Hinton agar, 37°C, 20 hours, read-out: MIC values against the standard strains
In short: as §1

[3] = system: Streptococcus faecalis ATCC 29212; conditions: Enterococcus faecalis, ATCC29212; Muller-Hinton agar; 37°C; 20 hours; read-out: MIC values against the standard strains
In short: as §1

[4] = system: Providencia rettgeri ATCC 9250; conditions: ATCC9250, Muller-Hinton agar, 37°C, 20 hours, read-out: MIC values against the standard strains
In short: as §1

[5] = system: Enterobacter aerogenes ATCC 29751; conditions: Klebsiella aerogenes, ATCC29751; Muller-Hinton agar; 37°C; 20 hours; read-out: MIC values against the standard strains
In short: as §1

[6] = system: Micrococcus luteus ATCC 9341; conditions: ATCC9341, Muller-Hinton agar, 37°C, 20 hours, read-out: MIC values against the standard strains
In short: as §1

[7] = system: Proteus vulgaris ATCC 6059; conditions: ATCC6059, Muller-Hinton agar, 37°C, 20 hours, read-out: MIC values against the standard strains
In short: as §1

[8] = system: Staphylococcus aureus ATCC 6538p; conditions: ATCC6538P, Muller-Hinton agar, 37°C, 20 hours, read-out: MIC values against the standard strains
In short: as §1

[9] = system: Klebsiella pneumoniae ATCC 10031; conditions: ATCC10031, Muller-Hinton agar, 37°C, 20 hours, read-out: MIC values against the standard strains
In short: as §1

[10] = system: Staphylococcus epidermidis ATCC 12228; conditions: ATCC12228, Muller-Hinton agar, 37°C, 20 hours, read-out: MIC values against the standard strains
In short: as §1

[11] = system: Salmonella typhimurium ATCC 14028; conditions: Salmonella enterica; Muller-Hinton agar; 37°C; 20 hours; read-out: MIC values against the standard strains
In short: as §1

[12] = system: Pseudomonas aeruginosa ATCC 25619; conditions: ATCC25619, Muller-Hinton agar, 37°C, 20 hours, read-out: MIC values against the standard strains
In short: as §1

[13] = system: Pseudomonas aeruginosa ATCC 10145; conditions: ATCC10145, Muller-Hinton agar, 37°C, 20 hours, read-out: MIC values against the standard strains
In short: as §1

[14] = system: Acinetobacter calcoaceticus ATCC 15437; conditions: ATCC15437, Muller-Hinton agar, 37°C, 20 hours, read-out: MIC values against the standard strains
In short: as §1

[15] = system: Escherichia coli ATCC 10536; conditions: ATCC10536, Muller-Hinton agar, 37°C, 20 hours, read-out: MIC values against the standard strains
In short: as §1

[16] = system: Morganella morganii ATCC 8076h; conditions: ATCC8076H, Muller-Hinton agar, 37°C, 20 hours, read-out: MIC values against the standard strains
In short: as §1

[17] = system: Enterobacter cloacae ATCC 27508; conditions: ATCC27508, Muller-Hinton agar, 37°C, 20 hours, read-out: MIC values against the standard strains
In short: as §1

[18] = system: Shigella flexneri ATCC 11836; conditions: ATCC11836, Muller-Hinton agar, 37°C, 20 hours, read-out: MIC values against the standard strains
In short: as §1

[19] = system: Bacillus megaterium ATCC 9885; conditions: Priestia megaterium, ATCC9885; Muller-Hinton agar; 37°C; 20 hours; read-out: MIC values against the standard strains
In short: as §1

[20] = system: Citrobacter freundii ATCC 8090; conditions: ATCC8090, Muller-Hinton agar, 37°C, 20 hours, read-out: MIC values against the standard strains
In short: as §1

[21] = system: Bacillus cereus ATCC 11778; conditions: ATCC11778, Muller-Hinton agar, 37°C, 20 hours, read-out: MIC values against the standard strains
In short: as §1

[22] = system: Shigella sonnei ATCC 11060; conditions: ATCC11060, Muller-Hinton agar, 37°C, 20 hours, read-out: MIC values against the standard strains
In short: as §1

[23] = system: Serratia marcescens ATCC 27117; conditions: ATCC27117, Muller-Hinton agar, 37°C, 20 hours, read-out: MIC values against the standard strains
In short: as §1

[24] = system: Pseudomonas aeruginosa ATCC 27853; conditions: ATCC27853, Muller-Hinton agar, 37°C, 20 hours, read-out: MIC values against the standard strains
In short: as §1

[25] = system: Escherichia coli ATCC 25922; conditions: ATCC25922, Muller-Hinton agar, 37°C, 20 hours, read-out: MIC values against the standard strains
In short: as §1

[26] = system: Acinetobacter calcoaceticus ATCC 15473; conditions: ATCC15473, Muller-Hinton agar, 37°C, 20 hours, read-out: MIC values against the standard strains
In short: as §1

| Structure (SMILES) | MIC [1] [µg/mL] | MIC [2] [µg/mL] | MIC [3] [µg/mL] | MIC [4] [µg/mL] | MIC [5] [µg/mL] | MIC [6] [µg/mL] | MIC [7] [µg/mL] | MIC [8] [µg/mL] | MIC [9] [µg/mL] | MIC [10] [µg/mL] | MIC [11] [µg/mL] | MIC [12] [µg/mL] | MIC [13] [µg/mL] | MIC [15] [µg/mL] | MIC [16] [µg/mL] | MIC [17] [µg/mL] | MIC [18] [µg/mL] | MIC [19] [µg/mL] | MIC [20] [µg/mL] | MIC [21] [µg/mL] | other results |
| --- | --- | --- | --- | --- | --- | --- | --- | --- | --- | --- | --- | --- | --- | --- | --- | --- | --- | --- | --- | --- | --- |
| CC[n+]1ccc(N)nc1SCC1=C(C(=O)[O-])N2C(=O)[C@@H](NC(=O)/C(=N\OC(C)(C)C(=O)O)c3csc(N)n3)[C@H]2SC1 [Example 12, 7-[(Z)-2-(2-aminothiazol-4-yl)-2-(carboxyprop-2-oxyimino)acetamido]-3-(4-amino-1-ethylpyrimidinium-2-yl)thiomethyl-3-cephem-4-carboxylate] | 1 (≈ 1.61 µM) | 2 (≈ 3.21 µM) | 64 (≈ 103 µM) | ≤ 0.008 | 2 (≈ 3.21 µM) | 0.5 (≈ 0.803 µM) | 1 (≈ 1.61 µM) | 4 (≈ 6.42 µM) | ≤ 0.008 | 2 (≈ 3.21 µM) | 1 (≈ 1.61 µM) | 2 (≈ 3.21 µM) | 16 (≈ 25.7 µM) | 0.063 (≈ 0.101 µM) | 0.016 (≈ 0.0257 µM) | 0.031 (≈ 0.0498 µM) | 0.25 (≈ 0.401 µM) | 0.5 (≈ 0.803 µM) | 0.13 (≈ 0.209 µM) | 128 (≈ 206 µM) | MIC [14]: 8 µg/mL (≈ 12.8 µM); MIC [22]: 0.5 µg/mL (≈ 0.803 µM); MIC [23]: 0.5 µg/mL (≈ 0.803 µM); MIC [24]: 8 µg/mL (≈ 12.8 µM); MIC [25]: 0.063 µg/mL (≈ 0.101 µM) |
| C[n+]1ccc(N)nc1SCC1=C(C(=O)[O-])N2C(=O)[C@@H](NC(=O)/C(=N\OC(C)(C)C(=O)O)c3csc(N)n3)[C@H]2SC1 [Example 2, 7-[(Z)-2-(aminothiazol-4-yl)-2-(carboxyprop-2-oxyimino)acetamido]-3-(4-amino-1-methylpyrimidinium-2-yl)thiomethyl-3-cephem-4-carboxylate] | 0.031 (≈ 0.0509 µM) | 2 (≈ 3.29 µM) | > 128 | ≤ 0.008 | 1 (≈ 1.64 µM) | 0.25 (≈ 0.411 µM) | 0.063 (≈ 0.104 µM) | 4 (≈ 6.57 µM) | 0.031 (≈ 0.0509 µM) | 2 (≈ 3.29 µM) | 0.13 (≈ 0.214 µM) | 1 (≈ 1.64 µM) | 2 (≈ 3.29 µM) | 0.031 (≈ 0.0509 µM) | ≤ 0.008 | ≤ 0.008 | 0.016 (≈ 0.0263 µM) | 0.25 (≈ 0.411 µM) | 0.031 (≈ 0.0509 µM) | 64 (≈ 105 µM) | MIC [14]: 4 µg/mL (≈ 6.57 µM); MIC [22]: 0.063 µg/mL (≈ 0.104 µM); MIC [23]: 0.063 µg/mL (≈ 0.104 µM); MIC [24]: 1 µg/mL (≈ 1.64 µM); MIC [25]: 0.031 µg/mL (≈ 0.0509 µM) |
| Nc1cc[n+](N)c(SCC2=C(C(=O)[O-])N3C(=O)[C@@H](NC(=O)/C(=N\OCC(=O)O)c4csc(N)n4)[C@H]3SC2)n1 [Example 75, 7-[(Z)-2-(2-aminothiazol-4-yl)-2-(carboxymethoxyimino)acetamido]-3-(1,4-diaminopyrimidinium-2-yl)thiomethyl-3-cephem-4-carboxylate] | 0.063 (≈ 0.108 µM) | 4 (≈ 6.88 µM) | > 128 | ≤ 0.008 | 0.5 (≈ 0.86 µM) | 2 (≈ 3.44 µM) | 0.031 (≈ 0.0533 µM) | 8 (≈ 13.8 µM) | 0.016 (≈ 0.0275 µM) | 4 (≈ 6.88 µM) | 0.063 (≈ 0.108 µM) | 4 (≈ 6.88 µM) | 8 (≈ 13.8 µM) | 0.016 (≈ 0.0275 µM) | ≤ 0.008 | ≤ 0.008 | 0.016 (≈ 0.0275 µM) | 0.5 (≈ 0.86 µM) | 0.031 (≈ 0.0533 µM) | 128 (≈ 220 µM) | MIC [26]: 4 µg/mL (≈ 6.88 µM); MIC [22]: 0.016 µg/mL (≈ 0.0275 µM); MIC [23]: 0.031 µg/mL (≈ 0.0533 µM); MIC [24]: 4 µg/mL (≈ 6.88 µM); MIC [25]: 0.016 µg/mL (≈ 0.0275 µM) |
| CCO/N=C(\C(=O)N[C@@H]1C(=O)N2C(C(=O)[O-])=C(CSc3nc(N)c4ccoc4[n+]3C)CS[C@H]12)c1csc(N)n1 [Example 33, 7-[(Z)-2-(2-aminothiazol-4-yl)-2-(ethoxyimino)acetamido]-3-(4-amino-1-methylfuro-[5,6,e]pyrimidinium-2-yl)thiomethyl-3-cephem-4-carboxylate] | 0.5 (≈ 0.846 µM) | 0.25 (≈ 0.423 µM) | 8 (≈ 13.5 µM) | ≤ 0.008 | 0.5 (≈ 0.846 µM) | 0.031 (≈ 0.0525 µM) | 0.25 (≈ 0.423 µM) | 0.25 (≈ 0.423 µM) | ≤ 0.008 | 0.13 (≈ 0.22 µM) | 0.5 (≈ 0.846 µM) | 0.5 (≈ 0.846 µM) | 16 (≈ 27.1 µM) | 0.063 (≈ 0.107 µM) | ≤ 0.008 | ≤ 0.008 | 0.063 (≈ 0.107 µM) | 0.063 (≈ 0.107 µM) | 0.063 (≈ 0.107 µM) | 32 (≈ 54.2 µM) | MIC [26]: 8 µg/mL (≈ 13.5 µM); MIC [22]: 0.13 µg/mL (≈ 0.22 µM); MIC [23]: 0.5 µg/mL (≈ 0.846 µM); MIC [24]: 8 µg/mL (≈ 13.5 µM); MIC [25]: 0.063 µg/mL (≈ 0.107 µM) |
| Cc1c[n+](N)c(SCC2=C(C(=O)[O-])N3C(=O)[C@@H](NC(=O)/C(=N\OC(C)(C)C(=O)O)c4csc(N)n4)[C@H]3SC2)nc1N [Example 57] | 0.031 (≈ 0.0497 µM) | 2 (≈ 3.21 µM) | > 128 | ≤ 0.008 | 0.5 (≈ 0.802 µM) | 0.25 (≈ 0.401 µM) | 0.031 (≈ 0.0497 µM) | 8 (≈ 12.8 µM) | 0.063 (≈ 0.101 µM) | 2 (≈ 3.21 µM) | 0.13 (≈ 0.208 µM) | 1 (≈ 1.6 µM) | 2 (≈ 3.21 µM) | 0.063 (≈ 0.101 µM) | ≤ 0.008 | ≤ 0.008 | 0.063 (≈ 0.101 µM) | 0.25 (≈ 0.401 µM) | 0.031 (≈ 0.0497 µM) | 128 (≈ 205 µM) | MIC [26]: 16 µg/mL (≈ 25.7 µM); MIC [22]: 0.063 µg/mL (≈ 0.101 µM); MIC [23]: 0.13 µg/mL (≈ 0.208 µM); MIC [24]: 2 µg/mL (≈ 3.21 µM); MIC [25]: 0.063 µg/mL (≈ 0.101 µM) |
| C[n+]1cc(-c2ccccc2)c(N)nc1SCC1=C(C(=O)[O-])N2C(=O)[C@@H](NC(=O)/C(=N\OC(C)(C)C(=O)O)c3csc(N)n3)[C@H]2SC1 [Example 21, 7-[(Z)-2-(2-aminothiazol-4-yl)-2-(carboxyprop-2-oxyimino)acetamido]-3-(4-amino-5-phenyl-1-methylpyrimidinium-2-yl)thiomethyl-3-cephem-4-carboxylate] | 0.25 (≈ 0.365 µM) | 1 (≈ 1.46 µM) | > 128 | ≤ 0.008 | 2 (≈ 2.92 µM) | 0.5 (≈ 0.73 µM) | 0.25 (≈ 0.365 µM) | 4 (≈ 5.84 µM) | 0.031 (≈ 0.0453 µM) | 2 (≈ 2.92 µM) | 0.5 (≈ 0.73 µM) | 2 (≈ 2.92 µM) | 16 (≈ 23.4 µM) | 0.13 (≈ 0.19 µM) | ≤ 0.008 | 0.016 (≈ 0.0234 µM) | 0.063 (≈ 0.092 µM) | 0.13 (≈ 0.19 µM) | 0.13 (≈ 0.19 µM) | 128 (≈ 187 µM) | MIC [26]: 32 µg/mL (≈ 46.7 µM); MIC [22]: 0.13 µg/mL (≈ 0.19 µM); MIC [23]: 0.5 µg/mL (≈ 0.73 µM); MIC [24]: 8 µg/mL (≈ 11.7 µM); MIC [25]: 0.13 µg/mL (≈ 0.19 µM) |
